Data reported in the NIST ThermoML archive (doi:10.1016/j.tca.2012.12.008).

Test: xn = mol fraction of the nth substance listed
Settings: 101 kPa, Liquid; for viscosity: Capillary tube (Ostwald / Ubbelohde) method; for mass density: Vibrating tube method

CCCCCC(C)O (stereo not given) [2-heptanol] + CCC(C)=O
Settings | mass density, 298.15 K [kg/m3] | mass density, 303.15 K [kg/m3] | mass density, 308.15 K [kg/m3] | mass density, 313.15 K [kg/m3] | viscosity, 298.15 K [mPa·s] | viscosity, 303.15 K [mPa·s] | viscosity, 308.15 K [mPa·s] | viscosity, 313.15 K [mPa·s]
x2 = 0 | 813.18 | 809.26 | 805.01 | 801.14 | 5.003 | 4.152 | 3.478 | 2.853
x2 = 0.0834 | 811.4 | 807.5 | 803.22 | 799.4 | 3.89 | 3.282 | 2.749 | 2.282
x2 = 0.1619 | 809.92 | 805.97 | 801.7 | 797.73 | 3.091 | 2.614 | 2.21 | 1.846
x2 = 0.2426 | 808.4 | 804.47 | 800.16 | 796.12 | 2.441 | 2.083 | 1.758 | 1.478
x2 = 0.3491 | 806.63 | 802.53 | 798.16 | 794.11 | 1.793 | 1.528 | 1.303 | 1.095
x2 = 0.4375 | 805.3 | 801.03 | 796.6 | 792.53 | 1.367 | 1.184 | 1.021 | 0.895
x2 = 0.5661 | 803.5 | 799.1 | 794.57 | 790.44 | 0.901 | 0.818 | 0.746 | 0.684
x2 = 0.6502 | 802.41 | 797.92 | 793.35 | 789.19 | 0.712 | 0.659 | 0.613 | 0.581
x2 = 0.7371 | 801.4 | 796.84 | 792.26 | 788.05 | 0.592 | 0.552 | 0.513 | 0.481
x2 = 0.8498 | 800.4 | 795.59 | 790.95 | 786.69 | 0.451 | 0.434 | 0.416 | 0.399
x2 = 0.9401 | 799.73 | 794.95 | 790.35 | 786 | 0.398 | 0.386 | 0.373 | 0.361

CCCCC(C)O (stereo not given) [2-hexanol] + CCC(C)=O
Settings | mass density, 298.15 K [kg/m3] | mass density, 303.15 K [kg/m3] | mass density, 308.15 K [kg/m3] | mass density, 313.15 K [kg/m3] | viscosity, 298.15 K [mPa·s] | viscosity, 303.15 K [mPa·s] | viscosity, 308.15 K [mPa·s] | viscosity, 313.15 K [mPa·s]
x2 = 0 | 810.14 | 806.13 | 802.06 | 797.96 | 4.101 | 3.411 | 2.819 | 2.219
x2 = 0.0874 | 808.49 | 804.57 | 800.48 | 796.34 | 3.085 | 2.587 | 2.145 | 1.714
x2 = 0.1661 | 807.21 | 803.17 | 799.05 | 794.87 | 2.413 | 2.035 | 1.684 | 1.358
x2 = 0.2482 | 805.92 | 801.8 | 797.59 | 793.4 | 1.909 | 1.63 | 1.361 | 1.086
x2 = 0.355 | 804.36 | 800.03 | 795.83 | 791.6 | 1.454 | 1.232 | 1.027 | 0.826
x2 = 0.4463 | 803.2 | 798.8 | 794.5 | 790.25 | 1.178 | 0.998 | 0.831 | 0.692
x2 = 0.5671 | 801.84 | 797.36 | 792.94 | 788.71 | 0.889 | 0.775 | 0.678 | 0.592
x2 = 0.6534 | 801.04 | 796.47 | 792.02 | 787.75 | 0.718 | 0.647 | 0.587 | 0.536
x2 = 0.7422 | 800.4 | 795.74 | 791.22 | 786.94 | 0.603 | 0.564 | 0.525 | 0.487
x2 = 0.8547 | 799.91 | 795.09 | 790.45 | 786.14 | 0.505 | 0.479 | 0.449 | 0.419
x2 = 0.942 | 799.62 | 794.76 | 790.06 | 785.68 | 0.429 | 0.41 | 0.388 | 0.366

CCC(C)=O [butanone] + CC(C)O
Settings | mass density, 298.15 K [kg/m3] | mass density, 303.15 K [kg/m3] | mass density, 308.15 K [kg/m3] | mass density, 313.15 K [kg/m3] | viscosity, 298.15 K [mPa·s] | viscosity, 303.15 K [mPa·s] | viscosity, 308.15 K [mPa·s] | viscosity, 313.15 K [mPa·s]
x1 = 0.0819 | 782.25 | 777.85 | 772.94 | 768.48 | 1.657 | 1.503 | 1.371 | 1.245
x1 = 0.1607 | 783.38 | 778.97 | 774.09 | 769.53 | 1.358 | 1.286 | 1.208 | 1.139
x1 = 0.24 | 784.62 | 780.11 | 775.17 | 770.66 | 1.142 | 1.11 | 1.077 | 1.041
x1 = 0.349 | 786.42 | 781.79 | 776.85 | 772.33 | 0.939 | 0.924 | 0.909 | 0.895
x1 = 0.4405 | 788.05 | 783.31 | 778.38 | 773.86 | 0.818 | 0.807 | 0.795 | 0.784
x1 = 0.5593 | 790.28 | 785.48 | 780.55 | 776.07 | 0.702 | 0.686 | 0.669 | 0.654
x1 = 0.6511 | 792.07 | 787.24 | 782.38 | 777.9 | 0.626 | 0.607 | 0.587 | 0.569
x1 = 0.7392 | 793.87 | 789.03 | 784.21 | 779.74 | 0.551 | 0.539 | 0.527 | 0.515
x1 = 0.8496 | 796.19 | 791.36 | 786.58 | 782.16 | 0.465 | 0.456 | 0.448 | 0.44
x1 = 0.937 | 798.09 | 793.22 | 788.46 | 784.11 | 0.417 | 0.406 | 0.396 | 0.386
x1 = 1 | 799.48 | 794.63 | 789.9 | 785.52 | 0.381 | 0.368 | 0.352 | 0.339

CCC(C)=O [butanone] + CCC(C)O
Settings | mass density, 298.15 K [kg/m3] | mass density, 303.15 K [kg/m3] | mass density, 308.15 K [kg/m3] | mass density, 313.15 K [kg/m3] | viscosity, 298.15 K [mPa·s] | viscosity, 303.15 K [mPa·s] | viscosity, 308.15 K [mPa·s] | viscosity, 313.15 K [mPa·s]
x1 = 0.0833 | 801.7 | 797.1 | 792.46 | 788.12 | 2.502 | 2.135 | 1.832 | 1.525
x1 = 0.161 | 800.91 | 796.26 | 791.63 | 787.2 | 2.081 | 1.791 | 1.571 | 1.359
x1 = 0.2402 | 800.19 | 795.56 | 790.81 | 786.44 | 1.749 | 1.533 | 1.355 | 1.206
x1 = 0.3498 | 799.4 | 794.77 | 789.93 | 785.56 | 1.428 | 1.284 | 1.143 | 1.018
x1 = 0.441 | 798.92 | 794.27 | 789.42 | 785.03 | 1.213 | 1.078 | 0.976 | 0.895
x1 = 0.5609 | 798.55 | 793.86 | 789.01 | 784.61 | 0.981 | 0.886 | 0.82 | 0.76
x1 = 0.6498 | 798.44 | 793.74 | 788.83 | 784.44 | 0.824 | 0.768 | 0.706 | 0.664
x1 = 0.7398 | 798.47 | 793.74 | 788.83 | 784.43 | 0.671 | 0.638 | 0.603 | 0.572
x1 = 0.8501 | 798.73 | 793.92 | 789.09 | 784.68 | 0.528 | 0.506 | 0.486 | 0.465
x1 = 0.9405 | 799.06 | 794.23 | 789.47 | 785.05 | 0.434 | 0.417 | 0.397 | 0.38
x1 = 1 | 799.48 | 794.63 | 789.9 | 785.52 | 0.381 | 0.368 | 0.352 | 0.339

CCCC(C)O (stereo not given) [pentan-2-ol] + CCC(C)=O
Settings | mass density, 298.15 K [kg/m3] | mass density, 303.15 K [kg/m3] | mass density, 308.15 K [kg/m3] | mass density, 313.15 K [kg/m3] | viscosity, 298.15 K [mPa·s] | viscosity, 303.15 K [mPa·s] | viscosity, 308.15 K [mPa·s] | viscosity, 313.15 K [mPa·s]
x2 = 0 | 805.41 | 801.21 | 796.64 | 792.51 | 3.478 | 2.801 | 2.335 | 1.993
x2 = 0.0852 | 804.2 | 799.84 | 795.37 | 791.21 | 2.516 | 2.204 | 1.894 | 1.662
x2 = 0.1643 | 803.1 | 798.76 | 794.25 | 790.05 | 2.008 | 1.786 | 1.581 | 1.429
x2 = 0.2456 | 802.1 | 797.76 | 793.2 | 788.94 | 1.592 | 1.439 | 1.316 | 1.217
x2 = 0.3511 | 801 | 796.62 | 791.97 | 787.7 | 1.183 | 1.103 | 1.038 | 0.992
x2 = 0.4422 | 800.24 | 795.77 | 791.11 | 786.83 | 0.92 | 0.891 | 0.86 | 0.832
x2 = 0.5632 | 799.6 | 794.94 | 790.27 | 785.94 | 0.702 | 0.693 | 0.683 | 0.673
x2 = 0.6508 | 799.3 | 794.56 | 789.87 | 785.47 | 0.62 | 0.608 | 0.595 | 0.583
x2 = 0.7416 | 799.14 | 794.34 | 789.63 | 785.18 | 0.569 | 0.548 | 0.528 | 0.507
x2 = 0.8512 | 799.2 | 794.26 | 789.56 | 785.05 | 0.48 | 0.463 | 0.445 | 0.427
x2 = 0.941 | 799.31 | 794.39 | 789.76 | 785.17 | 0.428 | 0.407 | 0.385 | 0.364
